# The SangsterLogP compilation
# Assay: method code SF-AS, from PMID: 6637504
# Details: pH 5.0
row,SMILES,logD
1,CCc1c(C)nc2cc(C)cc(C)n2c1=O,1.8
2,CC1CCCc2nc3c(c(=O)n21)CCC3 (stereo not drawn),1.21
3,CCCc1c(C)nc2ccccn2c1=O,1.85
4,O=c1c2c(nc3ccccn13)CCC2,1.19
5,Cc1cccn2c(=O)c3c(nc12)CCC3,1.72
6,O=c1c2ccccc2nc2n1CCC2,1.07

# Next, values leading:
row,logD,SMILES
1,1.25,O=c1c2c(nc3n1CCC3)CCCCC2
2,1.2,CC1CCc2nc3c(c(=O)n2C1)CCC3 (stereo not drawn)
3,1.41,O=c1c2c(nc3n1CCC3)CCCCCC2
4,1.22,CC1CCn2c(nc3c(c2=O)CCC3)C1 (stereo not drawn)
5,0.72,O=c1c2c(nc3n1CCCC3)CCC2
6,0.83,O=c1c2c(nc3n1CCC3)CCCC2
7,2.77,O=c1c2c(nc3n1CCCCCC3)CCCCCC2
